Data set [1] is described as follows: Oral pharmacokinetic profiles in Beagle dogs (SNAC tablets). Type of data set: in vivo. To be noted: oral tablet: 3 mg compound, 300 mg SNAC, 7.7 mg magnesium stearate; for half-life: male, dog, plasma, read-out: T½ (converted). As to the method:
To be able to evaluate oral exposure following tablet dosing, tablet compositions comprising the test substance and SNAC (sodium N-(8-(2-hydroxybenzoyl)amino)caprylate) were prepared by mixing test substance with roller compacted SNAC and magnesium stearate as, e.g., described in WO 2019/149880.
This assay was performed to measure the oral bioavailability of a compound. The assay determined the exposure of test compound following oral administration in Beagle dogs as described by relevant pharmacokinetic parameters and plasma concentration curves.
Preparation of tablets for oral administration: tablets containing test compound used for the assay described herein were immediate release SNAC-based tablets. The test compound was spray-dried as neutral sodium salt (pH 7-8). Dry granulation was carried out by roller compaction on a Gerteis MINI-PACTOR. Tablets containing 3 mg test compound, 300 mg sodium N-(8-(2-hydroxybenzoyl)amino)caprylate (SNAC) and 7.7 mg magnesium stearate were produced on at Kilian Style One using 7.2×12 mm punches.
Determination of the absorption following oral administration: eight (8) male Beagle dogs, 1 to 8 years of age and weighing approximately 10-15 kg at the start of the studies, were used. The dogs were group-housed in pens (12 hours light:12 hours dark), and fed individually and restrictedly once daily with Royal Canin Medium Adult dog (Royal Canin Products, China Branch, or Brogaarden A/S, Denmark). Exercise and group social were permitted daily, whenever possible. The dogs were used for repeated pharmacokinetic studies with a suitable wash-out period between successive dosing. An appropriate acclimatisation period was given prior to initiation of the first pharmacokinetic study. All handling, dosing and blood sampling of the animals were performed by trained and skilled staff. Before the studies the dogs were fasted overnight and from 0 to 4 h after dosing. Besides, the dogs were restricted to water 1 hour before dosing until 4 hours after dosing, but otherwise had ad libitum access to water during the whole period.
Tablets containing the test compound were administered in the following manner: 10 min prior to tablet administration the dogs were dosed subcutaneously with approximately 3.2 nmol/kg of glucagon. The tablets were placed in the back of the mouth of the dog to prevent chewing. The mouth was then closed, and 10 mL of tap water was given by a syringe to facilitate swallowing of the tablet. Blood was sampled at predefined time points for up till 288 hours after dosing to adequately cover the full plasma concentration-time absorption profile of the compound. For each blood sampling time point approximately 1.2 mL of whole blood was collected in a 1.5 mL EDTA coated tube, and the tube was gently turned to allowing mixing of the sample with the EDTA. Then, the blood samples were kept on ice until centrifugation (4 min, 4° C., 4000 rpm). Plasma was pipetted into Micronic tubes on dry ice and kept at −20° C. until analysis. Blood samples were taken as appropriate, for example from a venflon in the cephalic vein in the front leg for the first 2 hours and then with syringe from the jugular vein for the rest of the time points (the first few drops were allowed to drain from the venflon to avoid heparin saline from the venflon in the sample).
Bioanalysis was carried out as follows: plasma concentrations of test compound were assayed by plasma protein precipitation and analysed by liquid chromatography-mass spectrometry (LC-MS). Calibrators were prepared by spiking blank dog plasma with analytes to reach the final concentrations in the range typically from 0.5 to 200 nM. Calibrators, plasma blanks or study samples were prepared for LC-MS by protein precipitation by adding 3 volumes of ethanol followed by centrifugation at 4000 rpm at 4° C. for 1 h. The supernatant was diluted with 2 volumes of Milli-Q water containing 0.1% formic acid before injection on the LC-MS system. […]

The target in data set [2] is T1, human calcitonin receptor (hCTR) (Homo sapiens, UniProt P30988).
T1 construct: host or cells: BHK (Baby Hamster Kidney), Hollex-1 cell line
T1 sequence (P30988 25-474): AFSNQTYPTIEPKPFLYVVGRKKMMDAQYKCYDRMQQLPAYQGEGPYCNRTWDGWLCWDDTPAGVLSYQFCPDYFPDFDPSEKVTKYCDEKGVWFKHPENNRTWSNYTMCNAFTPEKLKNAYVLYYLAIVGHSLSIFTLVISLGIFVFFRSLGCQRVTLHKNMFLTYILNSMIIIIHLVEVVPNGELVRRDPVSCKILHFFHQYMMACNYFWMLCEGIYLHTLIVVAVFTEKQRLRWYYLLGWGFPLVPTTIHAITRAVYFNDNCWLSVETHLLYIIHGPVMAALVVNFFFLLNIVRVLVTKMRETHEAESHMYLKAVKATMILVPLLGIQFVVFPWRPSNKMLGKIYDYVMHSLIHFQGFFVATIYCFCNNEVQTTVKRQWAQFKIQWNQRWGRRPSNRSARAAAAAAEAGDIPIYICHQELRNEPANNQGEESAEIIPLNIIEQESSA
As to the kind of experiment: Human calcitonin receptor (hCTR) in vitro potency assay, CRE-luciferase reporter in BHK cells. In kind it is cell-based. The conditions noted are these: BHK hCTR/CRE-Luc cells, 3 hours incubation, assay buffer with 1% ovalbumin; read-out: hCalcR potency, EC50. The method, boiled down: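 BHK cells stably co-expressing human calcitonin receptor and a CRE-luciferase reporter, seeded the day before, were exposed to 7-fold serial dilutions (7 concentrations, often starting near 10 nM) in DMEM/HEPES/1% ovalbumin buffer for 3 h at 37 °C. Luminescence was then read after SteadyLite Plus addition.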

For data set [3] the following is noted: endogenous amylin, background statement; cited from earlier work.

Like-named read-outs stand apart in the source and are kept apart here. Starred links: 1 amine or outer side, 2 acyl side, 3 side chain; linkers in the order of their positions; H or OH if unused. Residues, ends and D or L forms follow the SMILES beside them. *: point of attachment. C20 diacid = O=C(O)CCCCCCCCCCCCCCCCCCC(=O)*; C18 diacid = O=C(O)CCCCCCCCCCCCCCCCC(=O)*; γGlu = O=C(O)[C@H](CCC(=O)[*:2])N[*:1]

Regarding `CC[C@H](C)[C@H](NC(=O)[C@@H]1CCCN1C(=O)CNC(=O)[C@H](Cc1ccccc1)NC(=O)[C@H](CC(N)=O)NC(=O)[C@H](CC(=O)O)NC(=O)[C@H](CO)NC(=O)[C@H](CO)NC(=O)[C@H](Cc1c[nH]cn1)NC(=O)[C@H](Cc1c[nH]cn1)NC(=O)[C@H](CC(C)C)NC(=O)[C@H](Cc1ccccc1)NC(=O)[C@H](CCC(=O)O)NC(=O)[C@H](C)NC(=O)[C@H](CC(C)C)NC(=O)[C@H](CCCNC(=N)N)NC(=O)[C@H](C)NC(=O)[C@@H](NC(=O)[C@H](CCC(N)=O)NC(=O)[C@H](C)NC(=O)[C@@H](NC(=O)[C@H](CO)NC(=O)[C@H](CC(C)C)NC(=O)[C@H](Cc1c[nH]cn1)NC(=O)[C@H](CO)NC(=O)[C@H](C)NC(=O)CC[C@H](NC(=O)CCCCCCCCCCCCCCCCCCC(=O)O)C(=O)O)[C@@H](C)O)[C@@H](C)O)C(=O)N[C@@H](CC(C)C)C(=O)N1CCC[C@H]1C(=O)N1CCC[C@H]1C(=O)N[C@H](C(=O)N[C@@H](CC(=O)O)C(=O)N[C@H](C(=O)NCC(=O)N[C@@H](CO)C(=O)N[C@@H](CC(N)=O)C(=O)N[C@H](C(=O)N1CCC[C@H]1C(N)=O)[C@@H](C)O)C(C)C)[C@@H](C)O` [Compound 2, N^1-[(4S)-4-carboxy-4-(19-carboxynonadecanoylamino)butanoyl]-[Ala1,Ser2,His3,Leu4,Ser5,Ala7,Gln8,Ala10,Glu14,His17,Asp21,Pro25,Pro28,Pro29,Asp31,Pro37]-human amylin] ({C20 diacid-γGlu}-ASHLSTAQTARLAEFLHHSSDNFGPILPPTDVGSNTP-NH2), in data set [1], the half-life is 146 h, the “AUC/D” value amounted to 14.06 kg·h/L and the “Cmax/D” value was found to be 0.15 kg/L. Also, the concentration for a half-maximal effect (EC50) in data set [2] is 1.31 pM.

With `CC[C@H](C)[C@H](NC(=O)[C@@H]1CCCN1C(=O)CNC(=O)[C@H](Cc1ccccc1)NC(=O)[C@H](Cc1c[nH]cn1)NC(=O)[C@H](Cc1c[nH]cn1)NC(=O)[C@H](CC(C)C)NC(=O)[C@H](Cc1ccccc1)NC(=O)[C@H](CCC(=O)O)NC(=O)[C@H](C)NC(=O)[C@H](CC(C)C)NC(=O)[C@H](CCCNC(=N)N)NC(=O)[C@H](C)NC(=O)[C@@H](NC(=O)[C@H](CCC(N)=O)NC(=O)[C@H](C)NC(=O)[C@@H](NC(=O)[C@H](CO)NC(=O)[C@H](CC(C)C)NC(=O)[C@H](CO)NC(=O)CNC(=O)[C@H](C)NC(=O)CC[C@H](NC(=O)CCCCCCCCCCCCCCCCC(=O)O)C(=O)O)[C@@H](C)O)[C@@H](C)O)C(=O)N[C@@H](CC(C)C)C(=O)N1CCC[C@H]1C(=O)N1CCC[C@H]1C(=O)N[C@H](C(=O)N[C@@H](CC(=O)O)C(=O)N[C@H](C(=O)NCC(=O)N[C@@H](CO)C(=O)N[C@@H](CCC(=O)O)C(=O)N[C@H](C(=O)N1CCC[C@H]1C(N)=O)[C@@H](C)O)C(C)C)[C@@H](C)O` [Compound 15, N^1-[(4S)-4-carboxy-4-(17-carboxyheptadecanoylamino)butanoy]-[Ala1,Gly2,Ser3,Leu4,Ser5,Ala7,Gln8,Ala10,Glu14,His17,Pro25,Pro28,Pro29,Asp31,Glu35,Pro37],des-(19-22)-human amylin] ({C18 diacid-γGlu}-AGSLSTAQTARLAEFLHHFGPILPPTDVGSETP-NH2), in data set [1], the half-life was 85.9 h, the “AUC/D” value is 21.07 kg·h/L and the “Cmax/D” value is listed as 0.29 kg/L. The EC50 in data set [2] was 1.01 pM.

“amylin (KCNTATCATQRLANFLVHSSNNFGAILSSTNVGSNTY; listed as Homo sapiens) [Endogenous amylin, 37-amino acid long polypeptide hormone co-secreted with insulin from the pancreatic beta-cell]”: in data set [3], the half-life was 0.25 to 0.333 h.

In general, EC50 refers to the concentration needed to bring the measured effect to its halfway point.

Values taken from patent US12116388B2, “Amylin receptor agonists” (Novo Nordisk A/S, priority 2022, dated 2024).
